{
  "source": "patent US6200602A",
  "about": "“Composition for enhanced uptake of polar drugs from the colon” (priority 1995, dated 2001)",
  "origin": "cited, not measured here",
  "key": {"[1]": {"settings": "literature knowledge"}, "[2]": {"settings": "absorption enhancer in the gastrointestinal tract"}, "[3]": {"settings": "oral / gastrointestinal tract"}, "[4]": {"settings": "rat intestine; sodium caprate and sodium glycocholate as enhancers"}},
  "data": [
    {"compound": "C[C@H](CCC(=O)O)[C@H]1CC[C@H]2[C@@H]3CC[C@@H]4C[C@H](O)CC[C@]4(C)[C@H]3C[C@H](O)[C@]12C", "note": "[sodium deoxycholate]", "values": [
      {"measurement": "absorption promoting effect", "setting": "[1]", "result": "known to act as an absorption enhancer in the gastrointestinal tract"},
      {"measurement": "side effect and toxicity", "setting": "[2]", "result": "associated with potential side effect (diarrhoea) and toxicity"}
    ]},
    {"compound": "O=P(O)(O)C(Cl)(Cl)P(=O)(O)O", "note": "[clodronate]", "values": [
      {"measurement": "absorption when dosed orally", "setting": "[3]", "result": "poor or erratic absorption"}
    ]},
    {"compound": "C[C@H](CS)C(=O)N1CCC[C@H]1C(=O)O", "note": "[captopril]", "values": [
      {"measurement": "absorption when dosed orally", "setting": "[3]", "result": "poor or erratic absorption"}
    ]},
    {"compound": "CNC(=C[N+](=O)[O-])NCCSCc1ccc(CN(C)C)o1", "note": "[ranitidine]", "values": [
      {"measurement": "absorption when dosed orally", "setting": "[3]", "result": "poor or erratic absorption"}
    ]},
    {"compound": "CN/C(=N/CCSCc1nc[nH]c1C)NC#N", "note": "[cimetidine]", "values": [
      {"measurement": "absorption when dosed orally", "setting": "[3]", "result": "poor or erratic absorption"}
    ]},
    {"compound": "O=C(O)c1cc(=O)c2c(OCC(O)COc3cccc4oc(C(=O)O)cc(=O)c34)cccc2o1", "note": "[sodium cromoglycate]", "values": [
      {"measurement": "absorption when dosed orally", "setting": "[3]", "result": "poor or erratic absorption"}
    ]},
    {"compound": "insulin: polypeptide drug", "values": [
      {"measurement": "preferred site for insulin absorption", "setting": "[4]", "result": "the ileum was the most preferred site for insulin absorption"}
    ]},
    {"compound": "CCCCCCCCCC(=O)[O-].[Na+]", "note": "[sodium caprate]", "values": [
      {"measurement": "absorption promoting effect", "setting": "[1]", "result": "can act as an absorption promoting agent"}
    ]}
  ]
}
